Measurements: article PMC7993727, “Discovery of a novel AR/HDAC6 dual inhibitor for prostate cancer treatment” (Aging (Albany NY), 2021)

Tests used:
HDAC6 = target: T1, HDAC6 (Homo sapiens, UniProt Q9UBN7); assay: fluorescent-based HDAC assay; assay type: biochemical; set-up: purchased BPS Bioscience
T1 sequence (Q9UBN7 1-1215): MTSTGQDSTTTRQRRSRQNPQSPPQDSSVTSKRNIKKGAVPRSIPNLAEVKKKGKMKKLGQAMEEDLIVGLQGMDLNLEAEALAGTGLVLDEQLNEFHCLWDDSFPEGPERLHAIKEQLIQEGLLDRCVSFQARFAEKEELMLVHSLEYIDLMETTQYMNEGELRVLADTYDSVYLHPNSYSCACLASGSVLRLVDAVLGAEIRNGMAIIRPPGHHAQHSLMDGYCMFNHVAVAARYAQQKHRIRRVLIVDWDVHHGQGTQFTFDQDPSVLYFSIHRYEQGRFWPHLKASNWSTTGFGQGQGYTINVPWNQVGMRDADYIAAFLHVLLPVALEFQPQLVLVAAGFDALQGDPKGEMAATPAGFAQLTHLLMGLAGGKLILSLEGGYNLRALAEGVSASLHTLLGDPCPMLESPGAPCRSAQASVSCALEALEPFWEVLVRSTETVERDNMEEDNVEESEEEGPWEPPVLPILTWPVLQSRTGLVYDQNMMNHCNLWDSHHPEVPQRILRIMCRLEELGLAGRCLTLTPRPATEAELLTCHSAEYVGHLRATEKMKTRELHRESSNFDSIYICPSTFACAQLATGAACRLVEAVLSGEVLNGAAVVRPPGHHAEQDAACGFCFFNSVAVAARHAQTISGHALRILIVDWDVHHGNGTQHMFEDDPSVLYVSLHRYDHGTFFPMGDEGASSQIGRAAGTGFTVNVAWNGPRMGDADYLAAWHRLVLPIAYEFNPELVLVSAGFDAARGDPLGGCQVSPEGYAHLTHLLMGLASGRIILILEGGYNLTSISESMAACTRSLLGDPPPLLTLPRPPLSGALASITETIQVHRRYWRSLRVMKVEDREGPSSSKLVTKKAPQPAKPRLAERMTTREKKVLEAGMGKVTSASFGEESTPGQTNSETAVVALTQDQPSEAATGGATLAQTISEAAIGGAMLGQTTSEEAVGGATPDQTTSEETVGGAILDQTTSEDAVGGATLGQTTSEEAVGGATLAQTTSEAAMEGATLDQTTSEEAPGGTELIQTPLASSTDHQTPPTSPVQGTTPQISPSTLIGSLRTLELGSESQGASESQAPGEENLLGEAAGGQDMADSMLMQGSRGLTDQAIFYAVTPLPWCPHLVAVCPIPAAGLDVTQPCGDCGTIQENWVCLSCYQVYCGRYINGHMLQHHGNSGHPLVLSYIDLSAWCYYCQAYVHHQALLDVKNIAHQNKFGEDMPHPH
Method: (§1) Commercial fluorescent assay kits were used to measure the activities of HDAC (BPS Bioscience). Briefly, the tested compounds were diluted in DMSO into a 96-well plate, and then assay buffer, HDAC, and substrate were added. The plate was incubated at 37° C for 30 minutes for enzymatic reactions, and the developer was added. After 10 minutes of incubation, the generated fluorescence was measured at an excitation of 380 nm and an emission of 460 nm.

HDAC2 = target: T2, HDAC2 (Homo sapiens, UniProt Q92769); assay: biochemical
T2 construct: purchased BPS Bioscience
T2 sequence (Q92769 whole entry): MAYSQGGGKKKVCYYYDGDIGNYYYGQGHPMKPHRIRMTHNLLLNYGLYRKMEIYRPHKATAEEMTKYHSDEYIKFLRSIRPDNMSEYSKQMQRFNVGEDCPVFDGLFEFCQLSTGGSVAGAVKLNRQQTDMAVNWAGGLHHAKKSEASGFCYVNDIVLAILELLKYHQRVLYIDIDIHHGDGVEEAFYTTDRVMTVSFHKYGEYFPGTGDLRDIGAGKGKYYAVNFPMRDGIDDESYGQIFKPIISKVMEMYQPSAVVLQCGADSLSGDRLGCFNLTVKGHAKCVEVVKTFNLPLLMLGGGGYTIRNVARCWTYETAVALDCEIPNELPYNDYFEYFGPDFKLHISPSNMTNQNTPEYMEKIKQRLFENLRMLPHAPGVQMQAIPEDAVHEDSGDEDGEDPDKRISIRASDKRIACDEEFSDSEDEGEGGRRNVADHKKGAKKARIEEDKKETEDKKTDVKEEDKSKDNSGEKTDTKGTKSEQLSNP
Method: as §1

AR = target: T3, AR (Homo sapiens, UniProt P10275); assay: cell-based; assay type: cell-based; details: VCaP cells
T3 construct: The VCaP cells were transfected with MMTV-LUC for 24 hours; endogenous in cells; host or cells: VCaP
T3 sequence (P10275 1-920): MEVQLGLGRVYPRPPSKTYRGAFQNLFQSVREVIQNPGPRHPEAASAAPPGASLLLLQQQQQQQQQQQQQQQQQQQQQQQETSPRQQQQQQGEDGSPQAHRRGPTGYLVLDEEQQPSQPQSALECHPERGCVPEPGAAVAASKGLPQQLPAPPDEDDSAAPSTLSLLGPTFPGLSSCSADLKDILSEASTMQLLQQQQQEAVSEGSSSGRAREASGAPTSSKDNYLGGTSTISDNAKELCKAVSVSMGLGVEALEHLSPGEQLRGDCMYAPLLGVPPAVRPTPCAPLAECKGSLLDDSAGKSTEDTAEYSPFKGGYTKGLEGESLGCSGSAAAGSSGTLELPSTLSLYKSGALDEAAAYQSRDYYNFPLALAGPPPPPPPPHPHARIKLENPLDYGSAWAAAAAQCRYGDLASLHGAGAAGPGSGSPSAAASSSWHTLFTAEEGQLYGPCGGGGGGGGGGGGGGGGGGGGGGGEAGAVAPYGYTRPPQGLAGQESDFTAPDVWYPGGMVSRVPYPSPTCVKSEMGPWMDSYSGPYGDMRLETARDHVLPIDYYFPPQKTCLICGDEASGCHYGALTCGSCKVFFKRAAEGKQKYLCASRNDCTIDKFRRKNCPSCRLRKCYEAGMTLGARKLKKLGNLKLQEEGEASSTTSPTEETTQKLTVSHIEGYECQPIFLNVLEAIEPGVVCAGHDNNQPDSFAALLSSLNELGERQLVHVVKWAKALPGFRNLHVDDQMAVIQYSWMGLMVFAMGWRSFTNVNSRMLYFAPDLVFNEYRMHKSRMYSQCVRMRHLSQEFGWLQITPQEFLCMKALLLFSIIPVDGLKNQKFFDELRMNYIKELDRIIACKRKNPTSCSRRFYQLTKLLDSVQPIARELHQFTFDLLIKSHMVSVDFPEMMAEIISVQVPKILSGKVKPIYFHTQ
Method: To evaluate the AR inhibition activities of Zeta55, an AR luciferase activity assay was performed (Table 1 and Supplementary Figure 1). […] To evaluate the HDAC inhibition activities of Zeta55, fluorescent-based HDAC assays were performed (Table 1 and Supplementary Figure 3).

With `N#Cc1ccc(N2C(=O)C3(CCC3)N(c3ccc(C(=O)NO)c(F)c3)C2=S)cc1C(F)(F)F` [Zeta55] the IC50 (HDAC6) was 980 nM, the “selectivity for HDAC6 over other HDACs tested” value (HDAC6; over HDAC1, 2, 3, 4) was > 20 folds and the IC50 (HDAC2) was > 20000 nM. For the same compound, the IC50 (AR; AR luciferase activity assay, MMTV-LUC, with 10 nM DHT) was 630 nM, the “AR antagonist activity, AR-mediated expression of reporter gene” value (AR; in the presence of DHT) was “potently inhibited” and the “AR agonist activity, expression of reporter gene” value (AR; without DHT, 10 μM) was “did not induce the expression of reporter gene”.
